assay: Human HepG2 cell viability assay in 384 well format; assay type: toxicity, cell-based; design: dose 125 nL, time 70.5 hour; cytotoxicity at 70.5 h: concentration not given beside the values; conditions: HepG2 cells, read-out: Inhibition

First: CCc1nccn1CCNC1CCN(c2nc3ccc(Cl)cc3s2)CC1
Second: O=C(NCCn1ccnc1-c1cc2n(n1)CCNC2)c1ccc(F)cc1
The cytotoxicity at 70.5 h of the first is higher: 40.5% for the first, 2.16% for the second.

Going from Cc1c(CN2CCc3[nH]cnc3C2C(=O)O)[nH]c2ccc(F)cc12 (stereo unspecified) to Cc1[nH]nc(CCC(=O)N2CCc3c(nc[nH]c3=O)C2)c1C, the cytotoxicity at 70.5 h rises from -20.3% to -15.9%.

Going from CSc1ccc(-c2nc(CN3CCC(C(N)=O)CC3)c(C)o2)cc1 to CCc1oc(C(=O)N[C@@H]2c3ccccc3C[C@@H]2O)cc1CN1CCCC1, the cytotoxicity at 70.5 h rises from -6.77% to -6.15%.

Compared with CCCNC(=O)N1CCc2ccc(S(=O)(=O)N3CCN(C)CC3)cc2C1, Cc1ccnn1CCC(=O)N1CCN(C2CCc3ccccc3C2)CC1 (stereo unspecified) is higher in cytotoxicity at 70.5 h: -16.2% for the first, -12.6% for the second.

First: Cc1cc(C)c2ncn(CC(C)(C)CO)c(=O)c2c1
Second: Cc1cn(CC(=O)Nc2cc(C(C)(C)C)nn2C)cn1
The cytotoxicity at 70.5 h of the first is lower: -6.8% for the first, -5.53% for the second.

First: COc1ccc(Cl)cc1CN(C)C(=O)CN1C(=O)OC[C@@H]1C(C)C
Second: CCN(CCn1cccn1)C(=O)CN1C(=O)OC[C@@H]1c1ccccc1
The cytotoxicity at 70.5 h of the first is lower: -6.97% for the first, -6.78% for the second.

First: CCC(Nc1nc(C2CCCC2)nc2c1cnn2C)c1ccncc1 (stereo unspecified)
Second: CCCc1nc(N2CCCN(c3ccncc3)CC2)c2cnn(C)c2n1
The cytotoxicity at 70.5 h of the first is higher: 8.01% for the first, -11.6% for the second.

Going from CCCc1ccc(C(C)Nc2ncnc3c2CCNC3)cc1 (stereo unspecified) to CCCC(=O)Nc1cc(C(=O)NC(C)Cc2ccncc2)ccc1C (stereo unspecified), the cytotoxicity at 70.5 h falls from -2.09% to -5.95%.

Going from CS(=O)(=O)CC1CCCN(C(=O)Cn2cccc(C(F)(F)F)c2=O)C1 (stereo unspecified) to COc1cccn(CC(=O)N2CCCC3(CCOCC3)C2)c1=O, the cytotoxicity at 70.5 h falls from 6.87% to -1.15%.

Going from CCCc1nc(CN(CC)Cc2ccc(O)c(C(=O)O)c2)no1 to CCN(Cc1noc(CC(C)C)n1)Cc1cccc(F)c1O, the cytotoxicity at 70.5 h rises from -8.69% to 12.8%.

Compared with Cc1cnn(CCCn2ncc(N3CCC(CN)C3)cc2=O)c1 (stereo unspecified), Cn1ncc(N2CCOC(CCNC(=O)CO)C2)cc1=O (stereo unspecified) is higher in cytotoxicity at 70.5 h: 9.78% for the first, 13.3% for the second.

Compared with O=C(CCN1CCCCO1)NCc1cn2c(n1)SCC2, CCN1CCCC1CNC(=O)CCSc1ccc2c(c1)OCCO2 (stereo unspecified) is higher in cytotoxicity at 70.5 h: -0.977% for the first, 2.47% for the second.

Compared with CN(C)S(=O)(=O)NC1CCCc2c1cnn2-c1ccc(C(C)(C)C)cc1 (stereo unspecified), Cc1cccc(C(C(=O)NC(C)(C)CN2CCCC2)N(C)C)c1 (stereo unspecified) is lower in cytotoxicity at 70.5 h: -2.4% for the first, -8.64% for the second.

Compared with CCc1[nH]c2c(CNc3nccc(N)n3)cc(C)cc2c1C, Cc1cc(CNc2nccc(N)n2)c2[nH]c(C)c(C)c2c1 is lower in cytotoxicity at 70.5 h: 23.9% for the first, 1.64% for the second.

Going from Cc1cc(N2Cc3cnc(CC(C)C)nc3C2)nc(N)n1 to CCCc1nc(C)cc(NC(C)Cc2cnccn2)n1 (stereo unspecified), the cytotoxicity at 70.5 h falls from 0.669% to -10.8%.

Going from CCN(C)C[C@@H]1CN(C(=O)c2cc(C(F)(F)F)n[nH]2)C[C@@H]1CO to CCN(C)C[C@@H]1CN(S(=O)(=O)c2cccc(C#N)c2)C[C@@H]1CO, the cytotoxicity at 70.5 h rises from -10% to -5.18%.

Compared with O=C(CCCNCc1ccccc1)N1CCCn2cncc2C1, O=C(Cn1nc2ccccc2n1)N1CCCn2cncc2C1 is lower in cytotoxicity at 70.5 h: -4.58% for the first, -8.74% for the second.

Going from CSc1nc(N)cc(N2C[C@@H]3CC[C@H](C2)N(Cc2cscn2)C3=O)n1 to Cc1ccccc1OCC1CCCN(c2cc(N)nc(N)n2)C1 (stereo unspecified), the cytotoxicity at 70.5 h falls from 7.64% to -8.34%.

First: CCc1nc(CCn2cc(-c3nccn3C)nn2)no1
Second: Cc1cc(-c2nccn2CCN2CCCCC2CO)oc1C (stereo unspecified)
The cytotoxicity at 70.5 h of the first is lower: -9.68% for the first, -5.85% for the second.

Compared with Cc1n[nH]c(CN2CCN(C(=O)C3CCC3)[C@@H]3CS(=O)(=O)C[C@@H]32)n1, COCCN1CCN(Cc2cccnc2)[C@H]2CS(=O)(=O)C[C@H]21 is higher in cytotoxicity at 70.5 h: 0.743% for the first, 21.4% for the second.

Going from COc1ccc(-c2noc(-c3ccc(N4CCC[C@H]4CO)nc3)n2)cc1 to COCc1noc(CN2CCCCC2CCc2cccs2)n1 (stereo unspecified), the cytotoxicity at 70.5 h falls from 10.2% to -14.8%.

First: Cc1ccnn1CC(=O)N(C)Cc1ccc(-n2cccn2)cc1
Second: CCc1nc(C)c(C(=O)N(C)Cc2cnn(-c3cccc(OC)c3)c2)s1
The cytotoxicity at 70.5 h of the first is lower: -7.33% for the first, -3.66% for the second.

First: N[C@H]1CN(C(=O)c2ccc3[nH]c(=O)c(=O)[nH]c3c2)C[C@@H]1c1ccccc1
Second: CN1CCNC(=O)C12CCN(C(=O)c1ccc3[nH]c(=O)[nH]c3c1)CC2
The cytotoxicity at 70.5 h of the first is lower: -16.1% for the first, -7.66% for the second.

Compared with OCCC[C@@H]1CN(c2ncc(Cl)cc2Cl)CC[C@@H]1N1CCOCC1, CCc1c(C(=O)N2CC[C@H](N3CCOCC3)[C@H](CCCO)C2)csc1C is lower in cytotoxicity at 70.5 h: 3.21% for the first, -20.4% for the second.

Going from CN(C)CCN1CC(C(=O)N2CCC(c3cccc(O)c3)CC2)CC1=O (stereo unspecified) to CN1C[C@@H](N)C[C@H]1C(=O)N1CCC(Cc2ccc(F)cc2)CC1, the cytotoxicity at 70.5 h falls from 2.7% to 0.737%.

Compared with CC(C)(C)N1CC(C(=O)NCc2cn3cccnc3n2)CC1=O (stereo unspecified), O=C(NCc1cn2cccnc2n1)C1CC(=O)N(Cc2ccccn2)C1 (stereo unspecified) is lower in cytotoxicity at 70.5 h: -5.98% for the first, -6.73% for the second.

Going from Cc1cc(NC2CCC(=O)N(C)C2)n2nccc2n1 (stereo unspecified) to COc1nc2c(cc1C(=O)NC(C)Cc1cc(C)n[nH]1)CCC2 (stereo unspecified), the cytotoxicity at 70.5 h falls from -9.21% to -12%.

Going from c1ccc(CCN2CCN(C3CCOC4(CCOCC4)C3)CC2)nc1 (stereo unspecified) to O=C(NCCCN1CCOCC1)C1CCCN(Cc2ccco2)C1 (stereo unspecified), the cytotoxicity at 70.5 h rises from -9.08% to -1.31%.

First: CCN(CC)CCC(=O)N1CCc2c(nc(N(C)C)nc2N(C)C)C1
Second: Cc1cc(C(=O)N2CCC3(CC2)CN(CCN(C)C)C(=O)O3)nc(C)n1
The cytotoxicity at 70.5 h of the first is higher: 29.3% for the first, -6.56% for the second.

Going from CCOCCNCc1cc(O)c2cc(C)ccc2n1 to Cc1ccc(-c2nc(CNC(C)CCO)[nH]c2-c2ccccn2)cc1 (stereo unspecified), the cytotoxicity at 70.5 h rises from -5.02% to 1.74%.

Going from COCCN1CCCC2(CCN(c3nc(C)nc4ccsc34)C2)C1=O (stereo unspecified) to CCN1CC2(CCC1=O)CCN(Cc1cscn1)CC2, the cytotoxicity at 70.5 h rises from -11.8% to -10.8%.

First: O=C(c1ncc[nH]1)N1CCC(n2cc(-c3ccccn3)nn2)CC1
Second: O=C(C1CCC1)N1CCCn2nc(CNc3ncccn3)cc2C1
The cytotoxicity at 70.5 h of the first is lower: 0.522% for the first, 1.42% for the second.

First: O=C(NCc1ccc2c(c1)CCCO2)C1CNCCO1 (stereo unspecified)
Second: N[C@@H]1CC[C@H](C(=O)NCc2ccc3nonc3c2)C1
The cytotoxicity at 70.5 h of the first is higher: 48.5% for the first, -13.2% for the second.

Compared with CCCOC1CCCN(c2nc(CC)nc3c2cnn3C)C1 (stereo unspecified), CCc1nc(NCCc2nc(C)c(C)s2)c2cnn(C)c2n1 is higher in cytotoxicity at 70.5 h: -10.7% for the first, -7.53% for the second.

Going from CC1CCCN1Cc1cccc(C(=O)Nc2ccc3[nH]c(=O)oc3c2)c1 (stereo unspecified) to Cc1cc(NC(=O)c2ccc(CN3CC[C@H](O)C3)cc2)ccc1F, the cytotoxicity at 70.5 h falls from 30.6% to -13.5%.

Going from c1cncc(C(Cn2cnnc2)N2CCOCC2)c1 (stereo unspecified) to c1cncc(Cc2nnc3n2CCN(CC2CCCNC2)CC3)c1 (stereo unspecified), the cytotoxicity at 70.5 h falls from 2.14% to -14%.

First: Cc1ccc([C@@H]2CN(S(=O)(=O)N3CCC(C)CC3)C[C@H]2N(C)C)cc1
Second: CC1(C)CN(S(=O)(=O)N2CCCC2)CC1c1ccccc1 (stereo unspecified)
The cytotoxicity at 70.5 h of the first is lower: -12.1% for the first, -6.08% for the second.

Going from CN(CCN1CCCCCC1)c1nccc(N2CCC(O)C2)n1 (stereo unspecified) to Cn1c(CN2CCCCC2)nnc1C1CCCN(c2ccncc2F)C1 (stereo unspecified), the cytotoxicity at 70.5 h rises from -6.64% to -5.33%.

Going from COCc1noc(CN2CC(=O)N(C)c3ccccc3C2=O)n1 to CCCc1nc(N2CC[C@@H](c3ccc4c(c3)OCO4)[C@H](O)C2)no1, the cytotoxicity at 70.5 h falls from 0.208% to -9.08%.

Going from Cc1ccccc1OCC1CCCN(C(=O)CNC(=O)N(C)C)C1 (stereo unspecified) to Cc1ccccc1C(C(=O)N1CCN(C(=O)c2ccc[nH]2)CC1)N(C)C (stereo unspecified), the cytotoxicity at 70.5 h falls from 16.8% to -15.2%.

First: N#Cc1c2n(c3c(=O)[nH]cnc13)CCCCC2
Second: c1cc(-c2ccn(CCN3CCCC3)n2)cc(-c2nccs2)c1
The cytotoxicity at 70.5 h of the first is higher: 2.85% for the first, -6.38% for the second.

Compared with CCc1nc(N)nc(NCCC(=O)NC2CCCCC2)c1C, CCc1nccn1CCC(=O)N1C[C@H]2CC[C@@H]1CN(C(=O)N(C)C)C2 is higher in cytotoxicity at 70.5 h: -3.68% for the first, -3.14% for the second.

Going from COCc1ccc(C(=O)N2CC[C@@](O)(COC)C(C)(C)C2)o1 to Cc1ncoc1C(=O)N1CCOC(CCCC(C)C)C1 (stereo unspecified), the cytotoxicity at 70.5 h falls from -6.95% to -8.44%.

Going from CNCc1n[nH]c(=O)n1-c1cccc(Cl)c1Cl to CC(=O)NCc1cc2n(n1)CCN(Cc1cccc(CCN)c1)C2, the cytotoxicity at 70.5 h rises from -8.26% to -2.57%.

First: O=c1n(CCn2cccc2)nc(C2CCNCC2)n1Cc1ccccc1
Second: O=C(Cc1c[nH]c(=O)[nH]c1=O)N1CCCCC1CCc1ccccc1 (stereo unspecified)
The cytotoxicity at 70.5 h of the first is lower: -3.92% for the first, 3.58% for the second.

First: Cc1ccccc1C(CNC(=O)CSc1nnc(N)s1)N(C)C (stereo unspecified)
Second: Cc1cccnc1CN(C)C(C(=O)O)c1ccc(C(C)(C)C#N)cc1 (stereo unspecified)
The cytotoxicity at 70.5 h of the first is lower: -6.4% for the first, -0.799% for the second.

Going from CCC(C(=O)NC1(CN2CCOCC2)CCCC1)n1cccn1 (stereo unspecified) to Cc1nc(-c2cccnc2)ncc1C(=O)N1CCCCC(N)C1 (stereo unspecified), the cytotoxicity at 70.5 h falls from -2.56% to -23.9%.

Going from CCc1ncc(C(=O)N(C)C2Cc3ccccc3C2)cn1 to CC(C)Cc1cc(C(=O)NCC2CCN(c3ccccc3F)C2)on1 (stereo unspecified), the cytotoxicity at 70.5 h falls from 2.28% to -13.6%.

First: CCc1cccc(NC(=O)CCC(=O)N(C)Cc2nc(C)c[nH]2)c1
Second: CCC(C)N(Cc1cccnc1)C(=O)c1ccc(NS(=O)(=O)CC)cc1 (stereo unspecified)
The cytotoxicity at 70.5 h of the first is higher: 2.2% for the first, -1.92% for the second.

First: CCN1CCCC1Cn1ccc2c(OC)c(OC)ccc2c1=O (stereo unspecified)
Second: COc1ccc(F)cc1C(=O)N1C[C@H]2CC[C@@H]1CN(c1ncccn1)C2
The cytotoxicity at 70.5 h of the first is higher: -6.22% for the first, -9.41% for the second.

Going from O=S1(=O)C[C@@H]2[C@H](C1)N(Cc1cc(F)cc(F)c1)CCN2CCO to COC(=O)[C@H]1C[C@@H](O)CCN1S(=O)(=O)c1ccc(F)cc1F, the cytotoxicity at 70.5 h rises from -1.64% to 21.8%.

Compared with CC(C)CN1CC(c2nc(-c3ccsc3)c[nH]2)CC1=O (stereo unspecified), CNC(=O)C(C)CNC(=O)c1coc(COc2cccc(F)c2F)n1 (stereo unspecified) is lower in cytotoxicity at 70.5 h: -2.45% for the first, -14.8% for the second.

First: Cc1cc(C)n(C2CCN(c3ncnc4c3CCC4)C2)n1 (stereo unspecified)
Second: Cc1nn(C)c2nc(N3CCCC3c3nccs3)sc12 (stereo unspecified)
The cytotoxicity at 70.5 h of the first is higher: 12.6% for the first, -12.1% for the second.

Compared with Cn1nnnc1SCCNC(=O)C1CCN(C(=O)C2CCCC2)CC1, CC(C)c1nnsc1CNC(=O)C1CCN(C(=O)C2CCCC2)CC1 is higher in cytotoxicity at 70.5 h: -5.48% for the first, 12% for the second.

Going from CCC(NS(=O)(=O)c1ccc(C(=O)NC2CC2)cc1)c1ccnn1C (stereo unspecified) to CC(C)N1CCC(CN2CCn3nc(CNC(=O)N(C)C)cc3C2)CC1, the cytotoxicity at 70.5 h rises from -7.49% to 4.16%.

For C[C@@H]1CN(S(=O)(=O)N2CCCCCC2)C[C@@]1(O)C1CCC1, the cytotoxicity at 70.5 h was -8.97%.

— ChEMBL document CHEMBL3507680, “University of Dundee, Gates Library screen for HepG2 cell viability”
